Tested on: common spider mite (Tetranychus urticae)
Assay: Tetranychus test (OP-resistant/spray treatment)
Type: in vivo
Details: single active compound, 0.32 ppm, spray treatment of infested bean plants (Phaseolus vulgaris), OP-resistant mites
Text: The expected action for a given combination of two active compounds can be calculated as follows, using the formula of S. R. Colby, Weeds 15 (1967), 20-22: […]
If • X is the efficacy, expressed as % of the untreated control, when employing active compound A at an application rate of m g/ha or in a concentration of m ppm, • Y is the efficacy, expressed as % of the untreated control, when employing active compound B at an application rate of n g/ha or in a concentration of n ppm and • E is the efficacy, expressed as % of the untreated control, when employing active compounds A and B at application rates of m and n g/ha or in a concentration of m and n ppm, then [formula]
If the actual insecticidal kill rate exceeds the calculated value, the action of the combination is superadditive, i.e. a synergistic effect is present. In this case, the actually observed insecticidal kill rate must exceed the value calculated using the above formula for the expected insecticidal kill rate (E).
Tetranychus test (OP-resistant/spray treatment) […]
After the desired period of time, the effect in % is determined. […] The kill rates determined are calculated using Colby's formula.

SMILES: COP(N)(=O)SC (centres unmarked) [Metamidophos, methamidophos]
- Kill rate in % after 14 d: 0%

SMILES: Cc1cc(C)c(C2=C(OC(=O)CC(C)(C)C)C3(CCCC3)OC2=O)c(C)c1 [Ex. (I-b-1)]
- Kill rate in % after 14 d: 0%

— patent US6900190B2, “Active substance combinations having insecticidal and acaricidal properties” (priority 2000, dated 2005)
